Results as given in patent publication US20240279217A1, “Heterocyclic compounds for the treatment of tuberculosis” (TECNIMEDE - SOCIEDADE TÉCNICO-MEDICINAL, SA, priority 2021, published 2024).
≈ marks a conversion by molar mass, not a printed value.

Key:
HepG2 cell line = test: In vitro cytotoxicity assay (MTS tetrazolium reduction); assay type: cell-based; conditions: HepG2, 48 h
Method: In an embodiment, in vitro cytotoxicity assay was carried out. In vitro cytotoxicity assay was performed in HepG2 cell line using a tetrazolium reduction assay for cell viability evaluation (MTS reduction as described by Cory A. et al (Cancer Commun. 1991, 3 (7), 207-212)). The assay was performed in 96-well plates for 48 h at 37° C. and 5% CO2 in incubation medium (low glucose DMEM with Glutamax, 10% FBS, 1% Pen/Strep and DMSO). Cells were exposed to 8 different compound concentrations in successive dilutions (usually, base 2), plus a positive control (a compound in a concentration known to decrease cell viability above 50%) and a negative control (incubation medium). Six replicate wells were assayed for each condition. Compound stock solutions were prepared in DMSO at 20 mM, whenever possible, filter sterilized, aliquoted and stored at −20° C. The maximum compound concentrations tested depend on its solubility in incubation medium, and on the maximum DMSO percentage allowable without loss of cell viability. At the end of the incubation period, tetrazolium reagent was added (CellTiter 96′ AQueous Solution from Promega); cells were incubated for another 3 hours in order to promote tetrazolium reduction to formazan by viable cells. The amount of soluble formazan produced was evaluated by 490 nm absorbance reading in a spectrophotometer plate reader. […] Whenever possible, IC50 was calculated as the concentration of compound that reduces cell viability by 50%.

[1] = tested on: H37Rv M. tuberculosis (strain ATCC 25618); test: Mycobacterium tuberculosis susceptibility assay REMA (resazurin microtiter assay); assay type: cell-based
[2] = Distribution coefficient (Log D) determination, octanol/PBS pH 7.4; assay type: physicochemical; conditions: octanol / phosphate buffer saline pH 7.4
Method: In an embodiment, distribution coefficient (Log D) determination assay was carried out. Test compounds were incubated in Eppendorf-type polypropylene microtubes in triplicates: a 5 μL aliquot of a 10 mM DMSO stock of each test compound were added into the previously mutually saturated mixture containing 500 μL of phosphate buffer saline (pH 7.4) and 500 μL of octanol. The solution was allowed to mix in a rotator for 1 hour at 30 rpm. Phase separation was assured by centrifugation. The octanol phase was diluted 100-fold with 40% acetonitrile in water for analysis, and aqueous phase was analysed without dilution. Mebendazole was used as a reference compound. All samples (both phases) were analysed in a Shimadzu VP HPLC system with a reverse phase column, coupled with tandem mass spectrometer API 3000 (PE Sciex). The TurbolonSpray ion source was used in positive ion mode. Acquisition and analysis of the data were performed using Analyst 1.5.2 software. Distribution coefficients of the tested compounds were calculated as the logarithm of the partition ratios (D) in both solvents, according to the equation below.
[formula] • where: So—peak area of the compound in octanol phase • Sp—peak area of the compound in phosphate buffer saline phase

[3] = Stability in human plasma (PS) assay; assay type: in vitro ADME; conditions: 37° C., 120 minutes, read-out: t1/2 (min) hPS
Method: In an embodiment, stability in human plasma (PS) assay was carried out. Test compounds (1 μM, final DMSO concentration 1%) were incubated in 5 aliquots of 70 μL each (one for each time point), in duplicates, at 37° C. with 100 rpm orbital shaking. Five time points over a duration 120 minutes have been analysed. Two reference compounds were analysed in parallel. The reactions were stopped by the addition of 420 μL of acetonitrile-water mixture (90:10) and subsequent plasma proteins sedimentation were achieved by centrifugation. Supernatants were analysed in a Shimadzu VP HPLC system with a reverse phase column, coupled with a tandem mass spectrometer API 3000 (PE Sciex). Both the positive and negative ion modes of the TurbolonSpray ion source were used. Acquisition and analysis of the data were performed using Analyst 1.5.2 software (PE Sciex). The percentage of the test compounds remaining after incubation in plasma and their half-lives (T1/2) were calculated.

PAMPA assay, GIT model = assay type: in vitro ADME; conditions: log Papp; pH 7.4, 50 μM, 4 hours, room temperature
Method: In an embodiment, PAMPA assay was carried. All steps of PAMPA assay were carried out according to pION Inc. PAMPA Explorer™ Manual. The main principle of the assay is the compound incubation in the donor chamber with aqueous buffer, which is separated from the acceptor chamber, with another buffer, by a phospholipid or hydrocarbon membrane fixed on a filter support. After the test, concentrations in the corresponding donor and acceptor chambers are measured and permeability is calculated. GIT model was simulated using GIT-0 phospholipid mix. Verapamil and quinidine (high permeability) and ranitidine (low permeability) were used as reference compounds. All compounds were tested in quadruplicates. […] After incubation, aliquots from both chambers were transferred to optic UV-Vis plates and absorbance was recorded in the range of 202-500 nm in 4 nm steps. Compounds with low UV-Vis signal were evaluated by LC-MS/MS (using a Shimadzu VP HPLC system with a reverse phase HPLC column, coupled with tandem mass spectrometer API 3000 (PE Sciex) and TurbolonSpray ion source used in positive ion mode; acquisition and analysis of the data were performed using Analyst 1.5.2 software (PE Sciex)).
The apparent permeability coefficient was calculated using the formula below. […]
The apparent permeability coefficient was calculated for each compound (log Papp).

SMILES: COc1cccc2ccc(N3CCC(c4nc(-c5ccc(OC(F)(F)F)cc5)no4)CC3)nc12 [Compound 3, 5-(1-(8-methoxyquinolin-2-yl)piperidin-4-yl)-3-(4-(trifluoromethoxy)phenyl)-1,2,4-oxadiazole]
- IC50 (HepG2 cell line; Homo sapiens): > 100 µM
- IC50 (HepG2 cell line; Table 2, cytotoxicity, MTS): > 100 µM
- MIC ([1]; Mycobacterium tuberculosis, 144 h, read-out: REMA MIC): 7.8 to 15.6 µM (≈ 3.67 to 7.34 µg/mL)
- REMA MIC ([1]; Table 2, MTB growth REMA, H37Rv, Middlebrook 7H9, 6 days at 37° C.): +++ (7.8-15.6)
- logD [2]: 5.34
- half-life at 1 μM [3]: > 240 min
- GIT PAMPA (PAMPA assay, GIT model): −4.8 log[10^−6 cm/s]
